Data on 3 molecules can be found in patent publication US20250388607A1, “A BROMOTAG-BASED TOOLKIT FOR RAPID INDUCTION OF CHEMICALLY INDUCED PROXIMITY” (THE BOARD OF TRUSTEES OF THE LELAND STANFORD JUNIOR …, priority 2024, published 2025).

“Also recorded” adds a separate entry of the source.

The target of one experiment is T1, FKBP12F36V and BromoTag (Homo sapiens, UniProt O60885+P62942, F37V/L387A).
T1 construct: BRD4 BD2 L387A mutant tag; LgBiT or SmBiT (NanoBiT subunit); expressed in transfected cells; host or cells: HEK293T
T1 sequence (P62942 whole entry F37V, other chains not shown): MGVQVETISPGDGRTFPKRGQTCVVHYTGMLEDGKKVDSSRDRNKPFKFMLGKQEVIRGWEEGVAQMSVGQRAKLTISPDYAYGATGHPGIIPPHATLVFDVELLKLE
Put plainly: NanoBiT assay, FKBP/BromoTag heterodimerization, tags expressed alone. The note with it: all LgBiT and SmBiT tag orientations; FIGS. 1A-1D; HEK293T. The class given is cell-based. From the text: (§1) FKBP/BromoTag NanoBiT-tagged construct cloning. FKBP12F36V and BromoTag sequences were cloned using Gibson assembly into pBiT1.1-C [TK/LgBiT], pBiT2.1-C [TK/SmBiT], pBiT1.1-N [TK/LgBiT], and pBiT2.1-N [TK/SmBiT] vectors included in the NanoBiT® PPI MCS Starter System kit (Promega #N2014). […] pBiT1.1 and pBiT2.1 vectors were linearized at EcoRI and NheI cut sites, inserts were amplified with PCR, and constructs were ligated using NEBuilder® HiFi DNA Assembly Master Mix.
NanoBiT assay. 15k HEK293T cells per well were plated in 92 ul DMEM+10% FBS in opaque 96-well plates and allowed to adhere overnight, approximately 18-24 hours. HEK293T cells were subsequently transfected with pBiT1.1 (LgBiT-tagged) or pBiT2.1 (SmBiT-tagged) FKBP12F36V and/or BromoTag vectors, using TransIT-LT1 transfection reagent (Mirus #MIR2300) and Opti-MEM (Gibco #31985062). After 24 hours, 25 ul Nano-Glo® Live Cell Reagent was added to each well to measure dimerization signal. Using a PHERAstar FSX, baseline luminescence was measured for five or six cycles (approximately eight to ten minutes). Test dimerizer compounds freshly diluted in DMEM+10% FBS were then manually spiked in and induced luminescence was measured continuously for up to two hours. […]

In the next experiment the target is T2, BromoTag (Homo sapiens, UniProt O60885, L387A).
T2 construct: BRD4 BD2 L387A mutant tag; expressed in transfected cells; host or cells: HEK293T
Put plainly: NanoBiT assay, BromoTag homodimerization, tag expressed alone. The note with it: all orientations of LgBiT and SmBiT tags; FIGS. 4A-4D and 5; high background. Format: cell-based.
Text: as §1
NanoBiT assay. 15k HEK293T cells per well were plated in 92 ul DMEM+10% FBS in opaque 96-well plates and allowed to adhere overnight, approximately 18-24 hours. HEK293T cells were subsequently transfected with pBiT1.1 (LgBiT-tagged) or pBiT2.1 (SmBiT-tagged) FKBP12F36V and/or BromoTag vectors, using TransIT-LT1 transfection reagent (Mirus #MIR2300) and Opti-MEM (Gibco #31985062). After 24 hours, 25 ul Nano-Glo® Live Cell Reagent was added to each well to measure dimerization signal. Using a PHERAstar FSX, baseline luminescence was measured for five or six cycles (approximately eight to ten minutes). Test dimerizer compounds freshly diluted in DMEM+10% FBS were then manually spiked in and induced luminescence was measured continuously for up to two hours. All summary figures were generated with GraphPad Prism. Data for the NanoBit assay is provided in FIGS. 1A-1D, 2A-2B, 3A-3B, 4A-4D, 5, 6A-6B, 7, and 12A-12C.

On to `CC[C@H](C(=O)N1CCCC[C@H]1C(=O)O[C@H](CCc1ccc(OC)c(OC)c1)c1cccc(OCC(=O)NCCCCCCNC(=O)[C@H](CC)[C@@H]2N=C(c3ccc(Cl)cc3)c3c(sc(C)c3C)-n3c(C)nnc32)c1)c1cc(OC)c(OC)c(OC)c1` [MMH-04-74, (R)-1-(3-(2-((6-((R)-2-((S)-4-(4-chlorophenyl)-2,3,9-trimethyl-6H-thieno[3,2-f][1,2,4]triazolo[4,3-a][1,4]diazepin-6-yl)butanamido)hexyl)amino)-2-oxoethoxy)phenyl)-3-(3,4-dimethoxyphenyl)propyl (S)-1-((S)-2-(3,4,5-trimethoxyphenyl)butanoyl)piperidine-2-carboxylate], for which the “max dimerization signal compared with FKBP12WT/FRB-rapamycin (sirolimus) control” value on FKBP12F36V and BromoTag was “dramatically higher max dimerization signal”. As to `CC[C@@H](C(=O)NCCCCCCNC(=O)[C@H](CC)[C@@H]1N=C(c2ccc(Cl)cc2)c2c(sc(C)c2C)-n2c(C)nnc21)[C@@H]1N=C(c2ccc(Cl)cc2)c2c(sc(C)c2C)-n2c(C)nnc21` [MMH-05-01-02, (2R,2′R)-N,N′-(hexane-1,6-diyl)bis(2-((S)-4-(4-chlorophenyl)-2,3,9-trimethyl-6H-thieno[3,2-f][1,2,4]triazolo[4,3-a][1,4]diazepin-6-yl)butanamide)], at BromoTag, the “max dimerization signal compared with DMSO” value is reported as “improved max dimerization signal over DMSO; also recorded: in most NanoBiT tag orientations have improved signal over DMSO” and the “max dimerization signal compared with FKBP12WT/FRB-rapamycin control” value is listed as “significantly higher signal; also recorded: outperformed existing FKBP12WT/FRB-rapamycin heterodimerization system”. On to `CC[C@@H](C(=O)NCCOCCOCCNC(=O)[C@H](CC)[C@@H]1N=C(c2ccc(Cl)cc2)c2c(sc(C)c2C)-n2c(C)nnc21)[C@@H]1N=C(c2ccc(Cl)cc2)c2c(sc(C)c2C)-n2c(C)nnc21` [MMH-05-01-03, (2R,2′R)-N,N′-((ethane-1,2-diylbis(oxy))bis(ethane-2,1-diyl))bis(2-((S)-4-(4-chlorophenyl)-2,3,9-trimethyl-6H-thieno[3,2-f][1,2,4]triazolo[4,3-a][1,4]diazepin-6-yl)butanamide)], for which, at BromoTag, the “max dimerization signal compared with DMSO” value is given as “improved max dimerization signal over DMSO; also recorded: in most NanoBiT tag orientations have improved signal over DMSO” and the “max dimerization signal compared with FKBP12WT/FRB-rapamycin control” value was “significantly higher signal; also recorded: outperformed existing FKBP12WT/FRB-rapamycin heterodimerization system”.
